The record followed here is patent US20100190851A1, “Use of Entacapone in cosmetic, dermatological and pharmaceutical compositions” (priority 2007, published 2010).

The target of series [1] is T1, human P-Selectin-IgG-chimera (Homo sapiens, UniProt P16109).
T1 construct: fused on or other part: human IgG Fc part, fused on as a capture and dimerising handle (captured by goat anti human Fc antibody)
T1 sequence (P16109 42-195 limits assumed): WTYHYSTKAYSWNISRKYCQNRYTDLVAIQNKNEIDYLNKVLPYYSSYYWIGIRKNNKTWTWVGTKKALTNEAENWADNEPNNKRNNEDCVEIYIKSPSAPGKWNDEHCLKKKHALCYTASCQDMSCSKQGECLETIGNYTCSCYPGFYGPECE
Put plainly: Sialyl Lewis^X Tyrosine Sulfate Assay (sLe^X TSA), P-selectin. The conditions noted are these: binding of P-selectin chimera to sLe^X-tyrosine sulfate polyacrylamide. On the procedure:
IC50-values are determined.
Microtiter plates are coated overnight in carbonate buffer pH9.6 with goat anti human Fc mAB (10 μg/ml).
After incubation for 2 h at 37° C., wells are washed for six times with in assay buffer incl. 0.005% Polyoxyethylenesorbitan monolaurate (TWEEN 20), developed for 10-15 min with 20 μl 3,3′,5,5′-tetramethylbenzidine (TMB)/H202 substrate solution and stopped with 20 μl 1 M H2SO4.

The target in series [2] is T2, human L-Selectin-IgG-chimera (Homo sapiens, UniProt P14151).
T2 construct: fused on or other part: human IgG Fc part, fused on as a capture and dimerising handle (captured by goat anti human Fc antibody)
T2 sequence (P14151 39-318 limits assumed): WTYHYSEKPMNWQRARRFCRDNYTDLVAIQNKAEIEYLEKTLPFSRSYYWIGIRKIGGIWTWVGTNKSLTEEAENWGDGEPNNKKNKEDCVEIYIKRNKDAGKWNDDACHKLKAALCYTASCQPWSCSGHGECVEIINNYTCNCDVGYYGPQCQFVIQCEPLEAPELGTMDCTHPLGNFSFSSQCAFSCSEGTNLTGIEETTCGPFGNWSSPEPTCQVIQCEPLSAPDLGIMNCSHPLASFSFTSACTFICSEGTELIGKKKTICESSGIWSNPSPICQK
Put plainly: Sialyl Lewis^X Tyrosine Sulfate Assay (sLe^X TSA), L-selectin. Particulars: binding of L-selectin chimera to sLe^X-tyrosine sulfate polyacrylamide. Here is the method: Sialyl Lewis^X Tyrosine Sulfate Assay (sLe^X TSA):
Compound of formula (I) is assayed on a molecular level for the ability to inhibit the binding of P- and L-selectin chimeric molecules to sLe^X and tyrosinesulfate residues linked to a polymeric matrix as a PSGL-1 substitute. IC50-values are determined.
Microtiter plates are coated overnight in carbonate buffer pH9.6 with goat anti human Fc mAB (10 μg/ml). After washing in assay buffer (25 mM 4-(2-hydroxyethyl)-1-piperazineethanesulfonic acid (HEPES), 150 mM NaCl, 1 mM CaCl2 pH7.4) and blocking (3% bovine serum albumin (BSA) in assay buffer) plates are incubated for 2 h at 37° C. with human P-Selectin-IgG-chimera (0.61 nM respectively 150 ng/mL) or human L-Selectin-IgG-chimera (0.61 nM respectively 89 ng/mL). 5 μl of sLe^X-tyrosine sulfate polyacrylamide (1 mg/ml) carrying 15% sLe^X, 10% Tyrosine-sulfate and 5% biotin is complexed with 20 μl Streptavidin-Peroxidase solution (1 mg/ml) and 25 μl assay buffer without CaCl2. […]
After incubation for 2 h at 37° C., wells are washed for six times with in assay buffer incl. […] Bound sLe^X-Tyrosine sulfate ligand complex is determined by measuring optical density at 450 nm vs. 620 nm in a Fusion alpha-FP reader (sold from Packard Bioscience, Dreieich, Germany). […]

For series [3], the system named is human E-selectin-IgG chimera. As to the kind of experiment: Flow chamber assay, attachment of HL-60 cells to E-selectin. The class given is cell-based. More on the design: dose or concentration left out as unconfirmed. The conditions noted are these: flow shear 1 dyne/cm^2; after 5 minutes continuous flow. Here is the method:
(§1) Flow Chamber Assay/Cell Adhesion and Rolling under Flow Conditions
(§2) To assess the capability of compound of formula (I) to inhibit cell binding under dynamic conditions resembling the flow in a blood vessel, flow chamber assays addressing/testing binding of HL-60 cells/various cell lines to P-selectin, and E-selectin chimeric molecules are performed.
(§3) Cell attachment under flow conditions is determined using a parallel flow chamber system. […]
(§4) After washing with assay buffer (“Roswell Park Memorial Institute 1640” (RPMI 1640)+10 mM HEPES) the dish is fitted into a parallel plate laminar flow chamber (sold from Glycotech, Rockville, Md.) and mounted on an inverted phase-contrast microscope (sold from Olympus, Hamburg, Germany) equipped with a CCD camera (JVC) that is connected to a PC. […] The flow rate is then decreased resulting in a calculated flow shear of 1 dyne/cm^2. Video sequences of 10 low power fields are digitally recorded after 5 minutes continuous flow. The percentage of inhibition is calculated from the mean number of cells per field that attached to the coated dish surface in the presence versus absence of compound of formula (I) of at independent experiments. […]

The subject of series [4] is human P-selectin-IgG chimera. As to the kind of experiment: Flow chamber assay, attachment of HL-60 cells to P-selectin. The format is cell-based. More on the design: dose or concentration left out as unconfirmed. Particulars: flow shear 1 dyne/cm^2; after 5 minutes continuous flow. Here is the method: as §1, §2, §3, §4
In series [5] the test system is Jurkat T-cells (attachment to E-Selectin). As to the kind of experiment: Modulation of T-cells: flow chamber assay with pre-treated Jurkat cells, E-selectin. The format is cell-based. The conditions noted are these: cells pre-incubated 5 minutes with compound, washed twice; flow chamber as Example 2. On the procedure:
(§5) Cell attachment under flow conditions is determined using a parallel flow chamber system. A 35 mm polystyrene culture dish is coated for 1 h at room temperature with coating buffer (50 mM tris-(hydroxymethyl) aminomethane buffer (Tris), 150 mM NaCl, 2 mM CaCl2; pH 7.4) containing human E- or P-selectin-IgG chimera at concentrations of […], respectively. After removal of the coating solution non specific binding sites are blocked for an additional hour with 1% BSA in coating buffer at room temperature.
as §4

Series [6] deals with Jurkat T-cells (attachment to P-Selectin). As to the kind of experiment: Modulation of T-cells: flow chamber assay with pre-treated Jurkat cells, P-selectin. The format is cell-based. The conditions noted are these: cells pre-incubated 5 minutes with compound, washed twice; flow chamber as Example 2. Here is the method:
as §5, §4

Series [7] in a line: Skin penetration, parallel artificial membrane permeability assay (skin-PAMPA). The format is in vitro ADME. Here is the method: To predict passive human skin permeability of compound of formula (I) a parallel artificial membrane permeability assay is performed that mimics the main barrier properties of human stratum corneum (skin-PAMPA).
The filter of the donor compartment of a hydrophobic PVDF 96-well microtiter filter plate (Millipore, Schwalbach, Germany) is coated with a mixture of 70% silicone and 30% isopropyl myristate dissolved in hexane. After evaporation of solvent the donor compartment is filled with buffer (pH 4) containing compound of formula (I) and assembled to the acceptor compartment filled with buffer (pH 4). The assembled plate is incubated at room temperature for 16 hours. Absorbance of compound of formula (I) in the dissembled acceptor compartment is measured with a photometer (Spectramax, Molecular Devices, Sunnyvale, Calif., USA). Permeation (% flux) of compound of formula (I) through the coated filter (artificial membrane) is calculated based on equilibrium absorbance.

For series [8], the system named is neutrophil infiltration into the peritoneum. As to the kind of experiment: Thioglycollate-induced peritonitis in mice. The class given is in vivo. Here is the method:
The compound of formula (I) is investigated in a thioglycollate-induced peritonitis model in mice employing standard method (see A. E. R. Hicks et al., J. Leukoc. Biol. 2005, 77, 59-66; M. C. Montesinos et al., Arthritis Res. Ther. 2006, 8(2): R53-R59).
Groups of 10 male mice weighting 24±2 g are used. Peritonitis is induced by intraperitoneal (i.p.) injection of 1 ml 4% thioglycollate medium in 0.9% NaCl to cause neutrophil infiltration into the peritoneum. The compound of formula (I) is dissolved in DMSO, diluted with PBS (phosphate buffered saline) and adjusted to neutral pH with NaOH. The solution of the compound of formula (I) and vehicle is administered intravenously (i.v.) 15 minutes or by oral gavage (p.o.) 60 minutes before thioglycollate medium challenge. The steroid compound Dexamethasone (3 mg/kg, p.o.; known product for rheumatoid arthritis) as the positive control compound is administered by oral gavage 60 minutes before thioglycollate medium challenge.
After 4 hr of induction, neutrophil counts are determined by Automated Hematology Analyzer (provider: Sysmex, XT-2000i equipped with XT-2000iV software) in peritoneal lavage (3 ml PBS) harvested from animals sacrificed by CO2 asphyxiation.
Normal control groups are mock induced by i.p. injection of 0.9% NaCl Inhibition of 30% or more (≧30) in the neutrophil count relative to the vehicle control is considered significant and indicates possible anti-inflammatory activity.
The compound of formula (I) is administered i.v. in different doses, 25 mg/kg, 10 mg/kg, 5 mg/kg, 1 mg/kg, 0.5 mg/kg and 0.25 mg/kg. The compound of formula (I) is also administered p.o. in different doses, 500 mg/kg, 250 mg/kg, 100 mg/kg, 50 mg/kg, 25 mg/kg, 10 mg/kg, 5 mg/kg and 1 mg/kg.

In the case of `CCN(CC)C(=O)/C(C#N)=C/c1cc(O)c(O)c([N+](=O)[O-])c1` [compound of formula (I), (2E)-2-cyano-3-(3,4-dihydroxy-5-nitrophenyl)-N,N-diethylacrylamide], the values for the IC50 in series [1] and in series [2] were 189 µM and 1250 µM, respectively. In addition, the “% inhibition of attachment of HL-60 cells, E-Selectin” value in series [3] was 30%. Also, the “% inhibition of attachment of HL-60 cells, P-Selectin” value in series [4] is given as 36%. Also, in series [5], the “% inhibition of attachment of Jurkat cells (pre-treated), E-Selectin” value stood at 30%. Also, in series [6], the “% inhibition of attachment of Jurkat cells (pre-treated), P-Selectin” value was 39%. Also, the “Permeation (% flux)” value in series [7] (70% silicone / 30% isopropyl myristate membrane, pH 4, room temperature, 16 hours) is reported as over 60%. In addition, the “skin penetration (in words)” value in series [7] (skin-penetration assay, Example 4) is “high penetration”. In series [8] (depending on the dose), the “inhibition of neutrophil influx compared with dexamethasone (3 mg/kg, p.o.)” value is recorded as “comparable or better”. Moreover, the “inhibition of neutrophil influx (in words)” value in series [8] (i.v. 0.25-25 mg/kg or p.o. 1-500 mg/kg, inhibition of 30% or more considered significant) is on record as “significant inhibition of neutrophil influx”. The “inhibition of neutrophil influx (inhibition rate)” value in series [8] (i.v. and p.o. at different doses before thioglycollate, neutrophil count 4 hr after induction) is on record as “more than 30%”.
On to sialyl Lewis X [sLe^X], for which, in series [2], the half-maximal inhibitory concentration (IC50) (usually the concentration that inhibits the measured activity by half) was over 3600 µM.
